The values below come from patent US9314498B2, “Bacteriocin derived from Lactobacillus rhamnosus” (priority 2011, dated 2016).

Series [1] relates to Candida albicans GDH18 strain. Kind of series: Antimicrobial activity (CFU count, percentage of living cells) against Candida albicans GDH18. It counts as cell-based. The note with it: 37° C., 90 minutes, 1 mM phosphate buffer. From the text: As the Candida, cariogenic bacteria and periodontal disease bacteria, the Candida albicans GDH18 strain, Streptococcus sobrinus B-13 strain, Streptococcus mutans NCTC10449 strain, Streptococcus mutans Ingbritt strain, Porphyromonas gingivalis Hudoi001 strain and Aggregatibacter actinomycetemcomitans Hudoe001 strain were used. The test strains were provided from Faculty of Dentistry, Hiroshima University, Japan, and Hiroshima University Dental Hospital.
(§1) The Candida albicans GDH18 strain was precultured using SD medium (Difco) at 37° C. for 24 hours under aerobic conditions. The Streptococcus sobrinus B-13 strain, Streptococcus mutans NCTC10449 strain and Streptococcus mutans Ingbritt strain were precultured using TSB medium (Difco) supplemented with 5% yeast extract (Difco) at 37° C. for 24 hours under aerobic conditions. The Porphyromonas gingivalis Hudoi001 strain and Aggregatibacter actinomycetemcomitans Hudoe001 strain were precultured using BHI medium (Difco) supplemented with hemin (5 mg/L) and vitamin K3 (1 mg/L) at 37° C. for 96 hours under anaerobic conditions with Anaero Pack System (Mitsubishi Gas Chemical Company, Inc.).
(§2) After the culture, the cells of the Candida, cariogenic bacteria and periodontal disease bacteria were collected by centrifugation at 1000×g, and washed twice with 1 mM phosphate buffer (pH 6.8). The cells were then suspended such that the final concentration was 1×10^8 cfu/ml or 1×10^7 cells/m. For suspension of the Streptococcus strains, ultrasonic treatment was also carried out.
(§3) Evaluation of the antimicrobial activity was carried out by the method by Edgerton and others (1998) with some modifications. With 20 mL of 1 mM phosphate buffer containing 0 to 25 μM Kog1 or Kog2 synthesized in Example 1, 20 μl of the suspension of the Candida albicans GDH18 strain cultured and prepared by the method described in the above Preparation Example was mixed, and the resulting mixture was incubated at 37° C. for 90 minutes with shaking. As a control, 20 ml of 1 mM phosphate buffer alone was used. The reaction was stopped by addition of 360 ml of YNB medium (Difco), and the number of colonies formed (colony forming units; CFUs) was counted together with the number of colonies in the control, to determine the percentage of living bacterial cells. That is, the equation of: (CFUs of suspension containing Kog1 or Kog2/CFU ml^−1 of control suspension)×100 was used to calculate the percentage.

The conditions of series [2]: well known basic antimicrobial peptide, literature; cited from earlier work.
For series [3], the system named is Streptococcus sobrinus B-13 strain. The series can be described thus: Antimicrobial activity against Streptococcus sobrinus B-13. It counts as cell-based. Particulars: tested 0 to 100 μM. As for the experimental part:
[The procedure below names another organism; the source lists this organism under the same test.] as §1, §2
as §3, with “percentage. […]” for “percentage.”

Series [4] concerns Porphyromonas gingivalis Hudoi001 strain. Kind of series: Antimicrobial activity against Porphyromonas gingivalis Hudoi001. It counts as cell-based. The note with it: not shown in the figures. As for the experimental part:
as §1, §2
That is, it is assumed that, in Examples described in Patent Literature 1, the Lactobacillus rhamnosus KO3 strain expressed Kog1 and Kog2, and the expressed Kog1 and Kog2 exerted antimicrobial activity against the Porphyromonas gingivalis Hudoi001 strain. […]

Series [5] concerns Streptococcus mutans NCTC10449 strain. Kind of series: Antimicrobial activity against Streptococcus mutans NCTC10449. The note with it: 0 to 100 μM, FIG. 4. It is filed as cell-based.
In series [6] the test system is Aggregatibacter actinomycetemcomitans Hudoe001 strain. The series can be described thus: Antimicrobial activity against Aggregatibacter actinomycetemcomitans Hudoe001. Particulars: tested 0 to 50 μM. It is filed as cell-based.
Series [7] relates to Porphyromonas gingivalis LPS (P.g-LPS) on RAW264.7 macrophage-like cells, ccl2. Kind of series: LPS inactivation: ccl2 secretion of RAW264.7 cells (ELISA). It counts as cell-based, mouse. The note with it: 100 ng/ml P.g-LPS preincubated 2 hours with 5, 10, 20 μM Kog1; as amount added increased. As for the experimental part:
(§4) As a medium, RPMI 1640 medium supplemented with 10% FBS (Fetal Bovine Serum) (Biological industries, Haemek, Israel), 1% antibiotic and 1% L-glutamine was used. In each well of a 24-well plate, 400 μl of the medium was placed, and 100,000 cells/well of mouse-derived RAW264.7 macrophage-like cells were inoculated thereto.
(§5) The bacteriocin Kog1 or Kog2, which was the same as in Example 1, was incubated in an Eppendorf tube under each of the following 4 conditions together with Porphyromonas gingivalis LPS (manufactured by InvivoGen) (hereinafter referred to as P.g-LPS) and the same medium as described above, at 37° C. under a gas phase of 5% CO2 for 2 hours: (1) 100 ng/ml P.g-LPS positive control; (2) 100 ng/ml P.g-LPS+5 μM Kog1 or Kog2; (3) 100 ng/ml P.g-LPS+10 μM Kog1 or Kog2; (4) 100 ng/ml P.g-LPS+20 μM Kog1 or Kog2.
(§6) The above-described medium placed in each well of the 24-well plate was removed using a pipetteman, and the medium in the Eppendorf tube for each of the 4 conditions described above was placed in the plate, followed by culturing the cells in the well plate at 37° C. under a gas phase of 5% CO2 for 12 hours. Thereafter, the culture supernatant was collected, and the amount of a chemokine ccl2 or the amount of a cytokine TNF-α secreted into the medium was quantified by the ELISA method by measuring the absorbance at 450 nm using a microplate reader. Since both ccl2 and TNF-α are involved in formation of inflammation, analysis of the relationship between the endotoxin LPS and the bacteriocins Kog1 and Kog2 is possible.

Series [8] concerns Porphyromonas gingivalis LPS (P.g-LPS) on RAW264.7 macrophage-like cells, TNF-α. Kind of series: LPS inactivation: TNF-α secretion of RAW264.7 cells (ELISA). It counts as cell-based. Particulars: 100 ng/ml P.g-LPS preincubated 2 hours with 5, 10, 20 μM Kog1; as amount added increased. As to the method: as §4, §5, §6
Background: In an ELISA, binding on a coated surface is turned into a signal by an enzyme label.

Series [9] concerns Candida albicans MYA274 strain. Kind of series: Boiling experiment: antimicrobial activity (ATP) against Candida albicans MYA274. It is filed as cell-based. Particulars: concluded from supernatant boiled at 100° C. for 20 minutes; peptides not directly used. As for the experimental part: In Example 9, antimicrobial activity against the Candida albicans MYA274 strain was investigated. The Candida albicans MYA274 strain was precultured in Sabouraud dextrose broth (Difco) at 37° C. for 24 hours, and then washed twice with MQ water, followed by being prepared such that OD600 is 0.3 (1.0×10^7 cells/ml).
In Example 9, the bacteriocin Kog1 or Kog2, or the Lactobacillus rhamnosus KO1 strain or KO3 strain, was not directly used. Instead, a lactic acid bacterium medium containing the Lactobacillus rhamnosus KO3 strain, 8020 yogurt (liquid type), was used in the experiment More specifically, the 8020 yogurt (liquid type) was prepared by adding the Lactobacillus rhamnosus KO3 strain at a concentration of 1% and YF-L811 starter at a concentration of 1% to the 15% skim milk+3% glucose medium, and then performing culture at 35° C. for 2 days.
Such 8020 yogurt (liquid type) was centrifuged to obtain a supernatant from which the lactic acid bacterium was removed (hereinafter referred to as Supernatant B). In the experiment, Supernatant B and a sample prepared by boiling Supernatant B at 100° C. for 20 minutes (hereinafter referred to as Supernatant Boil) were used. […]
In order to study changes in the antimicrobial activity by boiling, the following 3 kinds of samples were placed in a 24-well plate, and the value of ATP (pmol/L) after 24 hours of incubation at 37° C. was measured. […]

Series [10] can be described thus: Measurement of the isoelectric point of the synthesized peptides. It counts as physicochemical. Particulars: synthesized peptide. From the text: Among antimicrobial peptides, hBD2 (human P-defensin-2 (see Eur J., 2002, Oral Sci. (109), 121-124)) is well known as a basic antimicrobial peptide, and has an isoelectric point of about 10. However, the isoelectric points of Kog1 and Kog2 of the embodiment 2 were higher than the isoelectric point of hBD2, and more similar to the isoelectric points of antimicrobial peptides derived from mammals. Thus, Kog1 and Kog2 were confirmed to have less cytotoxicity.

Series [11] deals with Streptococcus mutans Ingbritt strain. Kind of series: Antimicrobial activity against Streptococcus mutans Ingbritt. Particulars: 0 to 100 μM, FIG. 5. It is filed as cell-based.

Where no end group is shown, it is not given here.

As to “histatin 5: antimicrobial peptide derived from human saliva (amino acid sequence shown in SEQ ID NO: 6) (DSHEKRHHGYKRKFHEKHHSHRGY; Antimicrobial peptide)”, the “peptide concentration at which 100% of the strain was killed” value in series [1] was 100 µM.
As to `C[C@@H]1[C@H](O)[C@@H](C)/C=C/C=C/C=C/C=C/C=C/C=C/C=C/[C@H](O[C@@H]2O[C@H](C)[C@@H](O)[C@H](N)[C@@H]2O)C[C@@H]2O[C@](O)(C[C@@H](O)C[C@@H](O)[C@H](O)CC[C@@H](O)C[C@@H](O)CC(=O)O[C@H]1C)C[C@H](O)[C@H]2C(=O)O` [amphotericin B], the “peptide concentration at which 100% of the strain was killed” value in series [1] worked out at 5 µM.
Regarding “lactoferricin B: antimicrobial peptide derived from milk (amino acid sequence shown in SEQ ID NO: 5) (FKCRRWQWRMKKLGAPSITCVRRAF; Antimicrobial peptide)”, the “peptide concentration at which 100% of the strain was killed” value in [1] worked out at 5 µM.
Turning to “JH8194: antimicrobial peptide of JP 3472821 B (amino acid sequence shown in SEQ ID NO: 7) (KRLFRRWQWRMKKY; Antimicrobial peptide)”, the “peptide concentration at which 100% of the strain was killed” value in series [1] was found to be 2.5 µM.
In the case of “hBD2: human β-defensin-2, well known basic antimicrobial peptide (GIGDPVTCLKSGAICHPVFCPRRYKQIGTCGLPGTKCCKKP; ends and bridges not checked; cysteine pairing not given here; UniProt O15263 24-64, looked up) [reference compound]”, the isoelectric point entry in series [2] is “about 10”. Besides, the “peptide concentration at which 100% of the strain was killed” value in series [3] amounted to 3.125 µM.
With “Kog1: peptide having the amino acid sequence shown in SEQ ID NO: 1, bacteriocin of Lactobacillus rhamnosus, synthesized by the tea-bag method (MAKARPSRPRPLTLRSLTAPAHAHKKWASRWILSMRLARVFGIEKPHG; listed as Lactobacillus rhamnosus)”, the antimicrobial activity result in series [4] was “capable of exerting antimicrobial activity”. Further, the “peptide concentration at which 100% of the strain was killed” value was 0.39 µM in [1], 1.56 µM in series [3] and 3.13 µM in series [6]. Also, the “antimicrobial activity compared to the other antimicrobial peptides (hBD2, lysozyme)” value in series [5] and in series [11] was “capable of killing a larger amount of Streptococcus mutans even at relatively low peptide concentration” each time. Besides, the “amount of the chemokine ccl2 secreted” value in [7] is reported as “decreased”. In addition, the “amount of the cytokine TNF-α secreted” value in series [8] is listed as “decreased”. The “heat resistance (antimicrobial activity after heating)” value in [9] is reported as “still maintain antimicrobial activity after heating”. The “isoelectric point (pl)” value in series [10] is on record as 12.90.
